These results are taken from US20210330738A1, “ANTIMICROBIAL, BACTERIOPHAGE-DERIVED POLYPEPTIDES AND THEIR USE AGAINST GRAM-NEGATIVE BACTERIA” (CONTRAFECT CORPORATION, priority 2018, published 2021).

For assay [1], the system named is P. aeruginosa strain PAO1. Nature of the assay: MIC in Mueller-Hinton broth supplemented with 50% human plasma or human serum. In kind it is cell-based, Pseudomonas aeruginosa. To be noted: for Minimal inhibitory concentration, Human Plasma: Mueller-Hinton broth supplemented with 50% human plasma; for Minimal inhibitory concentration, Human Serum: Mueller-Hinton broth supplemented with 50% human serum.

The subject of assay [2] is mature biofilms formed by P. aeruginosa strain ATCC 17647. Nature of the assay: Minimal Biofilm Eradicating Concentration (MBEC), Calgary Biofilm Device, crystal violet. In kind it is cell-based, Pseudomonas aeruginosa. The note with it: P. aeruginosa ATCC 17647 mature biofilm, >95% biofilm biomass removed.

LL-37: in assay [1], the “Minimal inhibitory concentration, Human Plasma” value is greater than 64 µg/mL and the “Minimal inhibitory concentration, Human Serum” value is greater than 64 µg/mL.
On to PGLa, for which, in assay [1], the “Minimal inhibitory concentration, Human Plasma” value is greater than 64 µg/mL and the “Minimal inhibitory concentration, Human Serum” value is greater than 64 µg/mL.
For Protegrin 1, in assay [1], the “Minimal inhibitory concentration, Human Plasma” value was determined as 1 µg/mL and the “Minimal inhibitory concentration, Human Serum” value worked out at 4 µg/mL.
Take T4 lysozyme [Peptide T4LYZ]: the MBEC in assay [2] and in assay [2] (listed as T4 lysozyme) was greater than 64 µg/mL throughout.
